Assay results taken from patent publication US20230159436A1, “APPLICATIONS OF AMIDE ANALOGS OF TRITERPENES IN CURES OF CANCER AND OTHER DISEASES” (Pacific Arrow Limited, priority 2021, published 2023).
Several values for one entry are separate records, joined by “and”; a condition that tells them apart may be missing. Identical values can stand only once.

Key:
[1] = test system: cancer growth, cancer invasion, cells invasion or cancer cell invasion; experiment: Inhibition of cancer growth and invasion (anti-cancer activity); assay type: cell-based
Excerpt: The program is based on the purification methods and biological assays including the MTT assay as described in International Application No. PCT/US05/31900, filed Sep. 7, 2005, U.S. Ser. No. 11/289,142, filed Nov. 28, 2005, and U.S. Ser. No. 11/131,551, filed May 17, 2005, and PCT/US2008/002086, 1188-ALA-PCT, filed Feb. 15, 2008, Ser. No. 12/344,682, 1020-B1-US, filed Dec. 29, 2008, US009499577B2, filed Jun. 24, 2014. The details of Analysis of gene expression of ES2 cells after Y-treatment by Microarray, Data Analysis Methods and Western blot in PCT/US2008/002086, 1188-ALA-PCT, filed Feb. 15, 2008, and the cell invasion experiments methods in International Application PCT/US2010/0042240, filed Jul. 16, 2010.

[2] = test system: Capan cells; experiment: MTT assay, pancreas (Capan); assay type: cell-based, human
Protocol: (§1) Cells. HTB-9 (bladder), HeLa-S3 (cervix), DU145 (prostate), H460 (lung), MCF-7 (breast), K562 (leukemia), HCT116 (colon), HepG2 (liver), U2OS (bone), T98G (brain), SK-MEL-5 (Skin) and OVCAR 3, ES2 (ovary), Pancreas (Capan), Mouth (KB), Kidney (A498).
(§2) MTT Assay. The procedure for MTT assay followed the method described by Carmichael et al. (1987) with modifications. The cells were seeded into a 96-well plate at for 24 hours before drug-treatment. The cells were then exposed to the drugs for 48, 72, or 96 hours. After the drug-treatment, MTT (0.5 mg/mL) was added to cultures and incubated for an hour. The formazan (product of the reduction of tetrazolium by viable cells) formed and was dissolved with DMSO and the O.D. at 490 nm, and was measured by an ELISA reader. The MTT level of the cells before drug-treatment was also measured (T0). The % cell-growth (% G) is calculated as: % G=(TD−T0/TC−T0)×100(1), where TC or TD represents O.D. readings of control or drug-treated cells.
(§3) When T0>TD, then the cytotoxicity (LC) expressed as % of the control is calculated as: % LC=(TD−T0/T0)×100(2).
A. Cells: Capan cells are derived from Human pancreas carcinoma (pancreas). Cells were grew in RPMI 1640 medium supplemented with 10% FCS, antibiotics and glutamine. […]
C. […] The percentage of drug-treated cells' growth as compared to those of the no drug control is determined.

[3] = test system: H460 cells; experiment: MTT assay, lung (H460); assay type: cell-based, human
Protocol: as §1, §2, §3
A. Cells • H460 cells are derived from a Human Lung large cell carcinoma. Cells were grew in RPMI 1640 medium supplemented with 10% FCS, antibiotics and glutamine. 5000 cells were seeded in a well (96-welled plate) for one day before drug-treatment
B. Drug Treatment: • Drug: Tig-S (stored as a 1000× stock solution in DMSO) was used. • Drug concentration used: from 0.15-20 ug/ml. • Drug-treatment was carried out for 1, 2 and 4 days. For the 4 days incubation, cells were fed with fresh medium (with drug) on day 2.
C. At the end of the drug-treatment, cytotoxic test was performed with MTT assay.

[4] = test system: OVCAR3; experiment: MTT assay, ovary (OVCAR3); assay type: cell-based
Protocol: as §1, §2, §3

[5] = test system: ES2 cells; experiment: MTT assay, ovary (ES2); assay type: cell-based, human
Protocol: as §1, §2, §3
(§4) Experiment 30: A Comparison of Non-Cancerous with Cancer Cells: • Method: A. Cells • WI38 is a Normal Lung fibroblast. Cells were grew in MEM medium supplemented with 10% FCS, antibiotics and glutamine. 20K cells were seeded per well (96-welled plate) for one day before drug-treatment • ES2 is a Ovary Clear cells carcinoma. Cells were grew in RPMI-1640 medium supplemented with 10% FCS, antibiotics and glutamine. 10K cells were seeded per well (96-welled plate) for one day before drug-treatment.
(§5) B. Drug Treatment: • Drug: Tig-S. stored as 1000× stock solution in DMSO. • Drug concentration used: from 0.15-20 ug/ml. • Drug-treatment was carried out for 2 days (ES2) or 6 days (WI38). For the 6 days incubation, cells were fed with fresh medium (with drug) on day 3 and 5.
(§6) C. At the End of the Drug-Treatment, Cytotoxic Test was Performed with MTT Assay.

[6] = test system: WI38 cells; experiment: MTT assay, normal lung fibroblast (WI38); assay type: cell-based, human
Protocol: as §2, §3, §4, §5, §6

[7] = test system: K562 cells; experiment: Inhibition of leukemia K562 cells growth (cell count); assay type: cell-based, human
Protocol: Method: • 1. Cells: Human leukemia cells K562 in RPMI1640 medium. • 2. Drug: Tig-S (1000× stock solution in DMSO). • 3. Start cells concentration: 50×10K per ml (500000/ml). • 4. Cells were cultured with or without drug for total of four days. • 5. Cell number is doubled after 2 days of incubation. Fresh medium (equal volume, with or without drug) was then added to culture. • 6. Cells were counted every day.

SMILES: CC=C(C)C(=O)OCC1(C)C(O)CCC2(C)C1CCC1(C)C2CC=C2C3CC(C)(C)C(O)C(O)C3(COC(=O)C(C)=CC)C(O)CC21C (stereo not drawn) [Tig-R, 24,28-O-Tigloyl-3β,16α,21β,22α,24β,28-hexahydroxyolean-12-ene]
- anti-cancer activity [1]: have anti cancer activities
- IC50 of pancreas (Capan) [2]: 2.4 µg/mL
- IC50 of lung (H460) [3]: 4.8 µg/mL
- IC50 of ovary (OVCAR3) [4]: 5.8 µg/mL
- IC50 of ovary (ES2) [5]: 2.8 ug/ml and about 2.8 ug/ml
- IC50 in normal human fibroblast cells (WI38) [6]: 10 to 15 µg/mL

SMILES: CC=C(C)C(=O)OCC1(C)C(O)CCC2(C)C1CCC1(C)C2CC=C2C3CC(C)(C)C(OC(=O)C(C)=CC)C(O)C3(CO)C(O)CC21C (centres unmarked) [Tig-S]
- anti-cancer activity [1]: have anti cancer activities
- No grow (IC100) ([7]; beginning on day 2): ≥ 2.5 µg/mL
- IC50, inhibition of Leukemia K562 cells growth ([7]; cell count, up to four days): about 0.6 ug/ml
- IC50, inhibition of pancreas cancer (Capan) cells' growth ([2]; drug-treatment 3 days): about 1 ug/ml
- IC50, inhibition of lung H460 cells growth ([3]; 4 days): 3 µg/mL
- IC50, inhibition of H460 cells' growth ([3]; Experiment 32, drug-treatment 1, 2 and 4 days): 3 µg/mL
- drug concentration beyond which minimum cells growth inhibition was observed ([3]; H460): > 5 µg/mL
- dead cells ([3]; H460, drug concentration 20 ug/ml): No dead cell was found
- IC50, inhibition of lung H460 cells growth ([3]; one day): 3.4 µg/mL
- IC50, inhibition of ovarian cancer (OCAR3) cells' growth [4]: 2.5 µg/mL
- IC50 of ovary (OVCAR3) [4]: 6.5
- IC50, inhibition of ES2 cells ([5]; 2 days): 0.3 µg/mL
- IC100 (100% inhibition of growth, no cell lost) ([5]; ES2): 0.16 to 0.3 µg/mL and 0.15 to 0.3 µg/mL
- % of the control cell growth ([5]; ES2, at 10 ug/ml): 10%
- MTT OD, % of the original value ([5]; ES2, at 10 ug/ml): 12%
- IC50, inhibition of WI38 cells ([6]; 6 days): 1.5 µg/mL
- % of the control cell growth ([6]; WI38, at 10 ug/ml): about 55%
- MTT OD, % of the original value ([6]; WI38, at 20 ug/ml): about 90%
- cell lost or dead ([6]; WI38, at 20 ug/ml): about 10%
- cells died ([6]; WI38, with 10 ug/ml): 10%
